Assay results published in article PMC9145193 (Molecules, 2022).

target: T1, AChE enzyme from electrophorus electricus (eeAChE) (Electrophorus electricus, UniProt O42275); assay: biochemical; conditions: mean ± SEM from three independent experiments
T1 construct: purchased Merck C3389
Protocol: Donepezil was used as a positive control.
AChE activity was measured by the […] using AChE enzyme from electrophorus electricus (eeAChE) (C3389, Merck, Kenilworth, NJ, USA). AChE solution (2 U/mL) was prepared with 0.1 M phosphate buffer (pH 8.0) firstly. Varied concentrations of test compounds (20 μL), 1 mM 5′-dithiobis (2-nitrobenzoic acid) (DTNB) solution (100 μL), and AChE solution (40 μL) were added in order to each well of a 96-well plate. After incubation for 15 min at 37 °C, the reaction was initiated by adding 20 μL of acetylthiocholine iodide (1 mM) to the mixed solution. The absorbance of each plate was instantly measured at 405 nm using a microplate reader. The inhibition of each compound was estimated using the formula (1−Ai/Ac) × 100, where Ai and Ac represent the absorbance of AChE in the presence and absence of inhibitors, respectively. Each experiment was replicated three times. Plotting curves of log concentration via percentage of inhibition, the IC50 values of all tested compounds were graphically analyzed (Graph Pad Prism 8.0).

T1 sequence (O42275 24-633): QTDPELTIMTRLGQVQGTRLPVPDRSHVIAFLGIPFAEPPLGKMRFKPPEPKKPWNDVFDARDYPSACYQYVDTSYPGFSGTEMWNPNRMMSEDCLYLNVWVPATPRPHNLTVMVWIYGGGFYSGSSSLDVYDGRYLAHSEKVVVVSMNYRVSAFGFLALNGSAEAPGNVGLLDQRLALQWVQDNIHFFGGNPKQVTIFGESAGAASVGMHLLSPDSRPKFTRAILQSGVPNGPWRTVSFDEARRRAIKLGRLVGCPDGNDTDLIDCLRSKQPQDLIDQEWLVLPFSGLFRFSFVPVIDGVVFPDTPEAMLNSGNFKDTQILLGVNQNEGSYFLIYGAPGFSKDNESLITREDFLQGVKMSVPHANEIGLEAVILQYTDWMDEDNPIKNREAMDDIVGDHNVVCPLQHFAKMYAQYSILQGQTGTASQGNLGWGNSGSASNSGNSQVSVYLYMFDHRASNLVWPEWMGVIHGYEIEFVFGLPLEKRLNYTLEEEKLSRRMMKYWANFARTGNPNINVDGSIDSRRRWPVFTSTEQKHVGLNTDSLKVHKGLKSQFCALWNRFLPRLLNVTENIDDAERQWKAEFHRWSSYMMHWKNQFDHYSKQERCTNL

Row | SMILES | IC50 [nM]
1 | COc1cc2c(cc1OC)C(=O)/C(=C/c1cc[n+](Cc3ccc(Br)cc3)cc1C(N)=O)OC2 [13j, (Z)-1-(4-Bromobenzyl)-3-carbamoyl-4-((6,7-dimethoxy-4-oxoisochroman-3-ylidene)methyl)pyridin-1-ium Bromide] | 422 ± 5.92
2 | COc1cc2c(cc1OC)C(=O)/C(=C/c1cc[n+](Cc3ccccc3F)cc1C(C)=O)OC2 [10b, (Z)-3-Acetyl-4-((6,7-dimethoxy-4-oxoisochroman-3-ylidene)methyl)-1-(2-fluorobenzyl)pyridin-1-ium Bromide] | 3.32 ± 0.21
3 | COc1cc2c(cc1OC)C(=O)/C(=C/c1cc[n+](Cc3ccc(F)cc3)cc1C(C)=O)OC2 [10d, (Z)-3-Acetyl-4-((6,7-dimethoxy-4-oxoisochroman-3-ylidene)methyl)-1-(4-fluorobenzyl)pyridin-1-ium Bromide] | 7.69 ± 0.35
4 | COc1cc2c(cc1OC)C(=O)/C(=C/c1cc[n+](Cc3ccc(Br)cc3)cc1C(C)=O)OC2 [10j, (Z)-3-Acetyl-1-(4-bromobenzyl)-4-((6,7-dimethoxy-4-oxoisochroman-3-ylidene)methyl)pyridin-1-ium Bromide] | 75.7 ± 3.18
5 | COc1cc2c(cc1OC)C(=O)/C(=C/c1cc[n+](Cc3cccc([N+](=O)[O-])c3)cc1C(C)=O)OC2 [10o, (Z)-3-Acetyl-4-((6,7-dimethoxy-4-oxoisochroman-3-ylidene)methyl)-1-(3-nitrobenzyl)pyridin-1-ium Bromide] | 22.4 ± 1.25
6 | COc1cc2c(cc1OC)C(=O)/C(=C/c1cc[n+](Cc3ccccc3C(F)(F)F)cc1C(N)=O)OC2 [13n, (Z)-3-Carbamoyl-4-((6,7-dimethoxy-4-oxoisochroman-3-ylidene)methyl)-1-(2-(trifluoromethyl)benzyl)pyridin-1-ium Bromide] | 30.7 ± 0.71
7 | COc1cc2c(cc1OC)C(=O)/C(=C/c1cc[n+](Cc3cccc(Br)c3)cc1C(N)=O)OC2 [13i, (Z)-1-(3-Bromobenzyl)-3-carbamoyl-4-((6,7-dimethoxy-4-oxoisochroman-3-ylidene)methyl)pyridin-1-ium Bromide] | 38.1 ± 0.92
8 | COc1cc2c(cc1OC)C(=O)/C(=C/c1cc[n+](Cc3ccc(C)cc3)cc1C(C)=O)OC2 [10m, (Z)-3-Acetyl-4-((6,7-dimethoxy-4-oxoisochroman-3-ylidene)methyl)-1-(4-methylbenzyl)pyridin-1-ium Bromide] | 54.1 ± 3.22
9 | COc1cc2c(cc1OC)C(=O)/C(=C/c1cc[n+](Cc3cccc(C(F)(F)F)c3)cc1C(C)=O)OC2 [10r, (Z)-3-Acetyl-4-((6,7-dimethoxy-4-oxoisochroman-3-ylidene)methyl)-1-(3-(trifluoromethyl)benzyl)pyridin-1-ium Bromide] | 25.3 ± 2.2
10 | COc1cc2c(cc1OC)C(=O)/C(=C/c1cc[n+](Cc3cccc(F)c3)cc1C(N)=O)OC2 [13c, (Z)-3-Carbamoyl-4-((6,7-dimethoxy-4-oxoisochroman-3-ylidene)methyl)-1-(3-fluorobenzyl)pyridin-1-ium Bromide] | 6.02 ± 0.08
11 | COc1cc2c(cc1OC)C(=O)/C(=C/c1cc[n+](Cc3ccc(C(F)(F)F)cc3)cc1C(C)=O)OC2 [10s, (Z)-3-Acetyl-4-((6,7-dimethoxy-4-oxoisochroman-3-ylidene)methyl)-1-(4-(trifluoromethyl)benzyl)pyridin-1-ium Bromide] | 326 ± 9.01
12 | COc1cc2c(cc1OC)C(=O)/C(=C/c1cc[n+](Cc3ccccc3Br)cc1C(C)=O)OC2 [10h, (Z)-3-Acetyl-1-(2-bromobenzyl)-4-((6,7-dimethoxy-4-oxoisochroman-3-ylidene)methyl)pyridin-1-ium Bromide] | 6.22 ± 0.05
13 | COc1cc2c(cc1OC)C(=O)/C(=C/c1cc[n+](Cc3ccccc3Cl)cc1C(C)=O)OC2 [10e, (Z)-3-Acetyl-1-(2-chlorobenzyl)-4-((6,7-dimethoxy-4-oxoisochroman-3-ylidene)methyl)pyridin-1-ium Bromide] | 5.86 ± 0.86
14 | COc1cc2c(cc1OC)C(=O)/C(=C/c1cc[n+](Cc3cccc(Br)c3)cc1C(C)=O)OC2 [10i, (Z)-3-Acetyl-1-(3-bromobenzyl)-4-((6,7-dimethoxy-4-oxoisochroman-3-ylidene)methyl)pyridin-1-ium Bromide] | 11 ± 0.82
15 | COc1cc2c(cc1OC)C(=O)/C(=C/c1cc[n+](Cc3ccc(C(F)(F)F)cc3)cc1C(N)=O)OC2 [13p, (Z)-3-Carbamoyl-4-((6,7-dimethoxy-4-oxoisochroman-3-ylidene)methyl)-1-(4-(trifluoromethyl)benzyl)pyridin-1-ium Bromide] | 441 ± 7.82
16 | COc1cc2c(cc1OC)C(=O)/C(=C/c1cc[n+](Cc3cccc(C)c3)cc1C(C)=O)OC2 [10l, (Z)-3-Acetyl-4-((6,7-dimethoxy-4-oxoisochroman-3-ylidene)methyl)-1-(3-methylbenzyl)pyridin-1-ium Bromide] | 6.61 ± 0.81

Row | SMILES | IC50 [nM]
17 | COc1cc2c(cc1OC)C(=O)/C(=C/c1cc[n+](Cc3ccccc3Cl)cc1C(N)=O)OC2 [13e, (Z)-3-Carbamoyl-1-(2-chlorobenzyl)-4-((6,7-dimethoxy-4-oxoisochroman-3-ylidene)methyl)pyridin-1-ium Bromide] | 17.6 ± 0.3
18 | COc1cc2c(cc1OC)C(=O)/C(=C/c1cc[n+](Cc3cccc(C)c3)cc1C(N)=O)OC2 [13l, (Z)-3-Carbamoyl-4-((6,7-dimethoxy-4-oxoisochroman-3-ylidene)methyl)-1-(3-methylbenzyl)pyridin-1-ium Bromide] | 16.26 ± 0.12
19 | COc1cc2c(cc1OC)C(=O)/C(=C/c1cc[n+](Cc3cccc(Cl)c3)cc1C(N)=O)OC2 [13f, (Z)-3-Carbamoyl-1-(3-chlorobenzyl)-4-((6,7-dimethoxy-4-oxoisochroman-3-ylidene)methyl)pyridin-1-ium Bromide] | 26.7 ± 0.28
20 | COc1cc2c(cc1OC)C(=O)/C(=C/c1cc[n+](Cc3ccccc3[N+](=O)[O-])cc1C(C)=O)OC2 [10n, (Z)-3-Acetyl-4-((6,7-dimethoxy-4-oxoisochroman-3-ylidene)methyl)-1-(2-nitrobenzyl)pyridin-1-ium Bromide] | 13.6 ± 0.72
21 | COc1cc2c(cc1OC)C(=O)/C(=C/c1cc[n+](Cc3ccccc3C)cc1C(N)=O)OC2 [13k, (Z)-3-Carbamoyl-4-((6,7-dimethoxy-4-oxoisochroman-3-ylidene)methyl)-1-(2-methylbenzyl)pyridin-1-ium Bromide] | 12.1 ± 0.9
22 | COc1cc2c(cc1OC)C(=O)/C(=C/c1cc[n+](Cc3ccccc3Br)cc1C(N)=O)OC2 [13h, (Z)-1-(2-Bromobenzyl)-3-carbamoyl-4-((6,7-dimethoxy-4-oxoisochroman-3-ylidene)methyl)pyridin-1-ium Bromide] | 21.7 ± 0.32
23 | COc1cc2c(cc1OC)C(=O)/C(=C/c1cc[n+](Cc3ccc(Cl)cc3)cc1C(N)=O)OC2 [13g, (Z)-3-Carbamoyl-1-(4-chlorobenzyl)-4-((6,7-dimethoxy-4-oxoisochroman-3-ylidene)methyl)pyridin-1-ium Bromide] | 188 ± 4.78
24 | COc1cc2c(cc1OC)C(=O)/C(=C/c1cc[n+](Cc3ccccc3C)cc1C(C)=O)OC2 [10k, (Z)-3-Acetyl-4-((6,7-dimethoxy-4-oxoisochroman-3-ylidene)methyl)-1-(2-methylbenzyl)pyridin-1-ium Bromide] | 4.8 ± 0.26
25 | COc1cc2c(cc1OC)C(=O)/C(=C/c1cc[n+](Cc3ccccc3)cc1C(N)=O)OC2 [13a, (Z)-1-Benzyl-3-carbamoyl-4-((6,7-dimethoxy-4-oxoisochroman-3-ylidene)methyl)pyridin-1-ium Bromide] | 8.63 ± 0.06
26 | COc1cc2c(cc1OC)C(=O)/C(=C/c1cc[n+](Cc3ccc(C)cc3)cc1C(N)=O)OC2 [13m, (Z)-3-Carbamoyl-4-((6,7-dimethoxy-4-oxoisochroman-3-ylidene)methyl)-1-(4-methylbenzyl)pyridin-1-ium Bromide] | 42.47 ± 0.25
27 | COc1cc2c(cc1OC)C(=O)/C(=C/c1cc[n+](Cc3ccc(F)cc3)cc1C(N)=O)OC2 [13d, (Z)-3-Carbamoyl-4-((6,7-dimethoxy-4-oxoisochroman-3-ylidene)methyl)-1-(4-fluorobenzyl)pyridin-1-ium Bromide] | 8.25 ± 0.13
28 | COc1cc2c(cc1OC)C(=O)/C(=C/c1cc[n+](Cc3cccc(Cl)c3)cc1C(C)=O)OC2 [10f, (Z)-3-Acetyl-1-(3-chlorobenzyl)-4-((6,7-dimethoxy-4-oxoisochroman-3-ylidene)methyl)pyridin-1-ium Bromide] | 10.3 ± 1.08
29 | COc1cc2c(cc1OC)C(=O)/C(=C/c1cc[n+](Cc3ccc(Cl)cc3)cc1C(C)=O)OC2 [10g, (Z)-3-Acetyl-1-(4-chlorobenzyl)-4-((6,7-dimethoxy-4-oxoisochroman-3-ylidene)methyl)pyridin-1-ium Bromide] | 67.3 ± 2.68
30 | COc1cc2c(cc1OC)C(=O)/C(=C/c1cc[n+](Cc3cccc(C(F)(F)F)c3)cc1C(N)=O)OC2 [13o, (Z)-3-Carbamoyl-4-((6,7-dimethoxy-4-oxoisochroman-3-ylidene)methyl)-1-(3-(trifluoromethyl)benzyl)pyridin-1-ium Bromide] | 43 ± 0.44
31 | COc1cc2c(cc1OC)C(=O)/C(=C/c1cc[n+](Cc3cccc(F)c3)cc1C(C)=O)OC2 [10c, (Z)-3-Acetyl-4-((6,7-dimethoxy-4-oxoisochroman-3-ylidene)methyl)-1-(3-fluorobenzyl)pyridin-1-ium Bromide] | 4.03 ± 0.23
32 | COc1cc2c(cc1OC)C(=O)/C(=C/c1cc[n+](Cc3ccc([N+](=O)[O-])cc3)cc1C(C)=O)OC2 [10p, (Z)-3-Acetyl-4-((6,7-dimethoxy-4-oxoisochroman-3-ylidene)methyl)-1-(4-nitrobenzyl)pyridin-1-ium Bromide] | 129 ± 2.68
